Results as given in publication PMC5352051, “Identification of a novel Polo-like kinase 1 inhibitor that specifically blocks the functions of Polo-Box domain” (Oncotarget, 2016).

What was measured:
[1] = system: Plk1, Cyclin B1 and pHH-3 in HeLa cells; assay: Western blot of mitotic markers; format: cell-based, human; details: synchronized HeLa, 50 ng/mL, 16 hrs, control for mitotic arrest
Experimental: HeLa cells were collected after trypsinization and lysed with RIPA buffer. Equal amount of proteins (30 μg/lane) were loaded, separated by 15% SDS-PAGE. After blocking with blocking buffer for 2 hrs at RT, the membrane was incubated with the following primary antibodies diluted in blocking buffer overnight at 4°C: anti-hPlk1 mouse monoclonal antibody (Cat# P5998; Sigma; 1:3000), anti-CyclinB1 rabbit polyclonal antibody (Cat# SAB4503501; Sigma; 1:2000), anti-pHH3 rabbit monoclonal antibody (Cat# 04-817; Millipore; 1:2000), anti-GAPDH rabbit polyclonal antibody (Cat# P30008; Abmart; 1:2000). The membrane was washed 3 times and then incubated with Horseradish Peroxidase-conjugated secondary antibodies for 1 hr at RT and visualized with ECL system (Millipore). The level of GAPDH was used as the loading control.

Plk2 PBD = target: T1, Plk2 PBD (Homo sapiens, UniProt Q9NYY3); assay: Fluorescence polarization assay, Plk2 PBD / FITC-labeled phosphopeptide; format: binding; details: FP assay, 1 hr preincubation at RT, read-out: Apparent IC50
T1 construct: (326-603 aa), Plk2 (355-685 aa), and Plk3 (335-646 aa); GST (N); made in house; host or cells: E. coli Rosetta BL21(DE3)
T1 sequence (Q9NYY3 355-685): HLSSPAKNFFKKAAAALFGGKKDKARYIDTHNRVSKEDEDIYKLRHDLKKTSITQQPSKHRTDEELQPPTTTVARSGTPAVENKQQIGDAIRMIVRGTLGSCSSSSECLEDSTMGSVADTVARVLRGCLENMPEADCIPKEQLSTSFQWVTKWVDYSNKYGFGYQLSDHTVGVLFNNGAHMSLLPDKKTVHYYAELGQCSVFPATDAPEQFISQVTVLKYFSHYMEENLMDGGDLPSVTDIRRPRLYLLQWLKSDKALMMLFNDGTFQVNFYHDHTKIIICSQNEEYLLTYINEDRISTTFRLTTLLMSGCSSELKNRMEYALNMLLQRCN
Experimental: FP assay was performed as follow. Briefly, 30 μL Plk1 PBD proteins (400 nM) were incubated with 0.3 μL tested compounds (1 mg/mL) with shaking for 1 hr at room temperature (RT) prior to addition of 30 μL FITC-Poloboxtide (FITC-GPMQSpTPLNG-OH; λex/λem: 485/535 nm; 60 nM) in FP buffer (50 mM Tris-HCl, 10 mM NaCl, 1 mM EDTA pH8.0). Three wells containing 30 μL FITC-Poloboxtide (60 nM) and 30 μL Plk1 PBD (400 nM) were used as negative control (0% inhibition); three wells containing 60 μL FITC-Poloboxtide (30 nM) only were used as positive control (100% inhibition). Fluorescence polarization was analyzed after incubation of FITC-Poloboxtide for 15 min in a 384-well black opaque microplate (Cat# 6007270, PerkinElmer) using Envision Multilabel Reader (PerkinElmer) at 25°C. We calculated the percentage of inhibition for each sample as follows: Inhibition(%)=Negative−Sample/Negative−Positive×100%
We plotted the inhibition values and determined IC50 using GraphPad Prism5.0. Together with the FITC-labeled peptides used for Plk1 PBD as mentioned above, the following peptides were used for specificity assays, FITC-GPMQTSpTPKNG-OH (Plk2 PBD), FITC-GPLATSpTPKNG-OH (Plk3 PBD). As described above for the FP assay, proteins were used at the following final concentrations: Plk1 PBD, 200 nM; Plk2 PBD, 450 nM; Plk3 PBD, 600 nM. All FITC-labeled peptides were chemically synthesized (China Peptides Co., Ltd., Shanghai) and further verified by mass spectrometry, and the purity is more than 95.0%.

Plk3 PBD = target: T2, Plk3 PBD (Homo sapiens, UniProt Q9H4B4); assay: Fluorescence polarization assay, Plk3 PBD / FITC-labeled phosphopeptide; format: binding
T2 construct: (326-603 aa), Plk2 (355-685 aa), and Plk3 (335-646 aa); GST (N); made in house; host or cells: E. coli Rosetta BL21(DE3)
T2 sequence (Q9H4B4 335-646): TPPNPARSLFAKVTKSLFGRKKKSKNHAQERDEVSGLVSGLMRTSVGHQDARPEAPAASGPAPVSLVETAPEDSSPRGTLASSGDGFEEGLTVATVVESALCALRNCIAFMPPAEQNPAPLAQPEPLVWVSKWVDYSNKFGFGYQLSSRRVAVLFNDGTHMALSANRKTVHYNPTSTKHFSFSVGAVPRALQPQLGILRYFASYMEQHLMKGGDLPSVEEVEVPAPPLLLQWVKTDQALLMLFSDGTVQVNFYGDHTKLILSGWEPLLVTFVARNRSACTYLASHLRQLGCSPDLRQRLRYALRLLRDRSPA
Experimental: FP assay was performed as follow. […] We calculated the percentage of inhibition for each sample as follows: Inhibition(%)=Negative−Sample/Negative−Positive×100%
We plotted the inhibition values and determined IC50 using GraphPad Prism5.0. Together with the FITC-labeled peptides used for Plk1 PBD as mentioned above, the following peptides were used for specificity assays, FITC-GPMQTSpTPKNG-OH (Plk2 PBD), FITC-GPLATSpTPKNG-OH (Plk3 PBD).

| SMILES | mitotic markers (Plk1, Cyclin B1, pHH-3) protein levels [1] | IC50 (Plk2 PBD) | IC50 (Plk3 PBD) |
| --- | --- | --- | --- |
| COC(=O)Nc1nc2ccc(C(=O)c3cccs3)cc2[nH]1 [Nocodazole, reference compound] | increase of protein levels |  |  |
| CC1=CC(=O)C(C(C)C)=C/C1=N/OC(=O)c1ccccc1C [Poloxin, reference compound] |  | 15.6 ± 2.26 µM |  |
| CC1=CC(=O)C(C(C)C)=CC1=O [TQ, Thymoquinone, reference compound] |  | 3.65 ± 0.96 µM | 18.9 ± 1.32 µM |
